According to patent publication US11225481B2 (Centre national de la recherche scientifique, priority 2015, dated 2022):
“And” between values parts separate entries of the source, which are not always exact repeats. Equal values may be shown once.

Tested on: BET bromodomains
Assay: Selectivity profile across BET bromodomains (HTRF)
Type: binding
Settings: in words
Method: Selectivity profiles of bromodomain inhibitors were performed as described in HTRF screen section. […] HTRF detection reagents (EPIgeneous™ Binding Domain kits) were purchased from Cisbio Bioassays and used according to supplier's protocol. GST tagged bromodomain proteins were purchased from BPS Bioscience and histone peptide from Anaspec.

Structure (SMILES)	selectivity profile among BET bromodomains
CCCCc1c(C)nc2nc(SCc3nc4c(c(=O)[nH]c(=O)n4Cc4ccc(Cl)cc4)n3CC)nn2c1C [Compound 27b, 8-(6-Butyl-5,7-dimethyl-[1,2,4]triazolo[1,5-a]pyrimidin-2-ylsulfanylmethyl)-3-(4-chlorobenzyl)-7-ethyl-3,7-dihydro-purine-2,6-dione]	selective towards BRD4(BD1)

Target: T1, BRD4(BD1) (Homo sapiens, UniProt O60885)
T1 construct: a BRD4(BD1) synthetic gene that includes a TEV cleavage site was purchased from LifeTechnology; made in house
Assay: HTRF assay, disruption of bromodomain/histone peptide interaction
Type: binding
Settings: HTRF; Table 1′, TABLE 2; read-out: BRD4(BD1) IC50
Method: HTRF assays were performed in white 384 Well Small Volume™ HiBase Polystyrene Microplates (Greiner) with a total working volume of 20 μL. Compounds were dispensed, with 200 nL per well (1% final DMSO), from a concentration stock of 1 mM in 100% DMSO and with serial DMSO dilutions, using a Mosquito Crystal pipetting robot platform (TTP labtech). The IC50 measurements were performed in triplicates (Table 2 and 3). All HTRF reagents were purchased from CisBio Bioassays and reconstituted according to the supplier protocols. For each assay 14.7 μL of mix 1 (protein+peptide) is added in the assay wells, containing previously dispensed inhibitors, according to the final concentration and buffer described in Table 4, using a Biomek NX MC pipetting robot (Beckman). Then, 5.1 μL of mix 2 (donnor+acceptor) is added. HTRF signals were measured, after a final incubation (overnight at room temperature), using a PHERAstar FS (BMG Labtech) with an excitation filter at 337 nm and fluorescence wavelength measurement at 620 and 665 nm, an integration delay of 60 μs and an integration time of 500 μs. Results were analyzed with a two-wavelengths signal ratio: [intensity (665 nm)/intensity (620 nm)]*10^4. Percentage of inhibition was calculated using the following equation: % inhibition=[(compound signal)−(min signal)]/[(max signal)−(min signal)]*100, where ‘max signal’ is the signal ratio with the compound vehicle alone (DMSO) and ‘min signal’ the signal ratio without peptide.
For Isothermal Titration Calorimetry (ITC) and crystallogenesis, BRD4(BD1) was produced and purified using a histidine tag affinity chromatography as described by Filipakopoulos et al.9 For these experiments, a pNIC28-BSA4 expression vector containing BRD4(BD1) and a Tobacco Etch Virus (TEV) protease cleavage site have kindly been provided by Stefan Knapp laboratory from the SGC at the University of Oxford. After size exclusion chromatography, the fractions presenting pure BRD4(BD1) after TEV cleavage of the histidine tag were pooled and concentrated to 25 mg/mL for crystallogenesis. For ITC assays, the protein was concentrated up to at 6 mg/mL and the DTT was removed using a buffer exchange column (PD10 from GE healthcare) equilibrated with 10 mM HEPES pH=7.5, 150 mM NaCl. For Homogeneous Time Resolved Fluorimetry (HTRF) experiments, a BRD4(BD1) synthetic gene that includes a TEV cleavage site was purchased from LifeTechnology in a pDONR transport vector before cloning into a pDESTTM15 expression vector for GST affinity purification. Protein production and purification was carried out using similar protocols and buffers as used for the His-BRD4(BD1) system. Purification was carried on GST affinity resin (Thermo Scientific) and reduced glutathione was used for protein release. GST-BRD4(BD1) was further purified by size exclusion chromatography on a Superdex 16/60 Hiload column (GE Healthcare) using 20 mM TRIS pH=8.0, 150 mM NaCl Buffer.

Structure (SMILES)	IC50
CCCCc1c(C)nc2nc(SCc3nc4c(c(=O)[nH]c(=O)n4Cc4ccc(Cl)cc4)n3CC)nn2c1C [Compound 27b, 8-(6-Butyl-5,7-dimethyl-[1,2,4]triazolo[1,5-a]pyrimidin-2-ylsulfanylmethyl)-3-(4-chlorobenzyl)-7-ethyl-3,7-dihydro-purine-2,6-dione]	20 µM and 20.4 µM

Same assay, conditions: HTRF; mean ± SD of three experiments; Table 2; read-out: IC50 μM, effect on BRD4(BD1) activity

Structure (SMILES)	IC50 [µM]
CCCCc1c(C)nc2nc(SCc3nc4c(c(=O)[nH]c(=O)n4Cc4ccc(Cl)cc4)n3CC)nn2c1C [Compound 27b, 8-(6-Butyl-5,7-dimethyl-[1,2,4]triazolo[1,5-a]pyrimidin-2-ylsulfanylmethyl)-3-(4-chlorobenzyl)-7-ethyl-3,7-dihydro-purine-2,6-dione]	20.4

Same assay, conditions: LE = 1.4(−log(IC50)/N), BRD4(BD1)

Structure (SMILES)	LE (Ligand Efficiency)
CCCCc1c(C)nc2nc(SCc3nc4c(c(=O)[nH]c(=O)n4Cc4ccc(Cl)cc4)n3CC)nn2c1C [Compound 27b, 8-(6-Butyl-5,7-dimethyl-[1,2,4]triazolo[1,5-a]pyrimidin-2-ylsulfanylmethyl)-3-(4-chlorobenzyl)-7-ethyl-3,7-dihydro-purine-2,6-dione]	0.15

Same assay, conditions: Table 3 selectivity profile; mean ± SD of three experiments; read-out: IC50 (μM) BRD4(BD1)

Structure (SMILES)	IC50 [µM]
CCCCc1c(C)nc2nc(SCc3nc4c(c(=O)[nH]c(=O)n4Cc4ccc(Cl)cc4)n3CC)nn2c1C [Compound 27b, 8-(6-Butyl-5,7-dimethyl-[1,2,4]triazolo[1,5-a]pyrimidin-2-ylsulfanylmethyl)-3-(4-chlorobenzyl)-7-ethyl-3,7-dihydro-purine-2,6-dione]	20.4 ± 3.6

Target: T1, BRD4(BD1)
Assay: HTRF assay on robot-synthesised focused library (Example 4 bis)
Type: binding
Settings: Table 2 bis; focused library without intermediary purification; read-out: HTRF (IC50, μM), effect on BRD4(BD1) activity
Method: (§1) The Accelerator Synthetizer SLT100 allows the efficient synthesis of the focused library in 96 well plates that can be directly transferred to a Labcyte Access/Echo® Laboratory Workstation to assess the compounds for their ability to disrupt bromodmain/histone complexes using the homogeneous time-resolved fluorescence (HTRF®) technology (IC50 μM).
as §1, with “After” for “The Accelerator Synthetizer SLT100 allows”, “with the Accelerator Synthetizer SLT100, the focused library has been” for “that can be”, “μM, table 2bis).” for “μM).”

Structure (SMILES)	IC50 [µM]
CCCCn1c(=O)[nH]c(=O)c2c1nc(CSc1nc3nc(C)c(CCC(=O)O)c(C)n3n1)n2CC [Compound 33]	8.5
CCCCn1c(=O)[nH]c(=O)c2c1nc(CSc1nc3nc(C)c(CC(=O)O)c(C)n3n1)n2CC [Compound 34]	44.5
CCCCn1c(=O)[nH]c(=O)c2c1nc(CSc1nc3ccc(C(=O)O)cc3o1)n2CC [Compound 35]	19.2
CCCCn1c(=O)[nH]c(=O)c2c1nc(CSc1nc3cc(C(=O)O)ccc3o1)n2CC [Compound 36]	3
CCCCn1c(=O)[nH]c(=O)c2c1nc(CSc1nc3cc(S(=O)(=O)CC)ccc3o1)n2CC [Compound 37]	16.6
CCCCn1c(=O)[nH]c(=O)c2c1nc(CSc1nc3cc(C(=O)OC)ccc3o1)n2CC [Compound 38]	48.2
CCCCn1c(=O)[nH]c(=O)c2c1nc(CSc1nc3cc(S(=O)(=O)N4CCOCC4)ccc3[nH]1)n2CC [Compound 39]	38.2
CCCCn1c(=O)[nH]c(=O)c2c1nc(CSc1nc3ccc([NH2+][O-])cc3[nH]1)n2CC [Compound 40]	33
CCCCn1c(=O)[nH]c(=O)c2c1nc(CSc1nc3cc(C(=O)OCC)ccc3n1CC)n2CC [Compound 41]	6.4
CCCCn1c(=O)[nH]c(=O)c2c1nc(COc1nc3cc(C(=O)O)ccc3[nH]1)n2CC [Compound 42]	45.3
CCCCn1c(=O)[nH]c(=O)c2c1nc(COc1ccc(-n3[nH]c(C(=O)O)cc3=O)nn1)n2CC [Compound 43]	33.4
CCCCn1c(=O)[nH]c(=O)c2c1nc(COc1ccc(-n3ncc(C(=O)O)c3CC)nn1)n2CC [Compound 44]	21.9
CCCCn1c(=O)[nH]c(=O)c2c1nc(COc1ccc(C3CNCC3C(=O)O)cc1)n2CC (centres unmarked) [Compound 45]	11.6
CCCCn1c(=O)[nH]c(=O)c2c1nc(CSc1nnc(-c3ccccc3)c(-c3ccccc3)n1)n2CC [Compound 46]	20.1
CCCCn1c(=O)[nH]c(=O)c2c1nc(COc1ccc3c(=O)c(Oc4ccccc4)coc3c1)n2CC [Compound 47]	30.1
CCCCn1c(=O)[nH]c(=O)c2c1nc(COc1ccc3c(=O)c(-c4ccccc4)coc3c1)n2CC [Compound 48]	35.2
CCCCn1c(=O)[nH]c(=O)c2c1nc(COc1cn3cc(C(=O)O)ccc3n1)n2CC [Compound 49]	35.1
CCCCn1c(=O)[nH]c(=O)c2c1nc(COc1cccc(C(=O)NCc3ccccc3)c1)n2CC [Compound 51]	30.2
CCCCn1c(=O)[nH]c(=O)c2c1nc(COc1ccc(Nc3nc4ccccc4c(=O)[nH]3)cc1)n2CC [Compound 52]	33
CCCCn1c(=O)[nH]c(=O)c2c1nc(CSc1nc(O)c3c(C)cc(C)nc3n1)n2CC [Compound 53]	4.4
CCCCn1c(=O)[nH]c(=O)c2c1nc(CSc1nc3nc(C)ccc3o1)n2CC [Compound 54]	7.1
CCn1c(CSc2nc3nc(C)c(CCC(=O)O)c(C)n3n2)nc2c1c(=O)[nH]c(=O)n2Cc1ccc(Cl)cc1 [Compound 55]	14.2
CCn1c(CSc2nc3ccc(C(=O)O)cc3o2)nc2c1c(=O)[nH]c(=O)n2Cc1ccc(Cl)cc1 [Compound 56]	13.2

Structure (SMILES)	IC50 [µM]
CCn1c(CSc2nc3cc(C(=O)O)ccc3o2)nc2c1c(=O)[nH]c(=O)n2Cc1ccc(Cl)cc1 [Compound 57]	7.5
CCn1c(CSc2nc3cc(S(=O)(=O)N4CCCCC4)ccc3o2)nc2c1c(=O)[nH]c(=O)n2Cc1ccc(Cl)cc1 [Compound 58]	2.7
CCn1c(CSc2nc3cc(S(=O)(=O)CC)ccc3o2)nc2c1c(=O)[nH]c(=O)n2Cc1ccc(Cl)cc1 [Compound 59]	6.9
CCn1c(CSc2nc3cc([N+](=O)[O-])ccc3o2)nc2c1c(=O)[nH]c(=O)n2Cc1ccc(Cl)cc1 [Compound 60]	8.4
CCn1c(CSc2nc3cc(S(=O)(=O)N(C)C)ccc3o2)nc2c1c(=O)[nH]c(=O)n2Cc1ccc(Cl)cc1 [Compound 61]	4.7
CCn1c(CSc2nc3cc(S(=O)(=O)N4CCOCC4)ccc3o2)nc2c1c(=O)[nH]c(=O)n2Cc1ccc(Cl)cc1 [Compound 62]	8.9
CCn1c(CSc2nc3cc(C(=O)OC)ccc3o2)nc2c1c(=O)[nH]c(=O)n2Cc1ccc(Cl)cc1 [Compound 63]	8.9
CCn1c(CSc2nc3ccc(C(=O)O)cc3[nH]2)nc2c1c(=O)[nH]c(=O)n2Cc1ccc(Cl)cc1 [Compound 64]	5.1
CCn1c(CSc2nc3cc(S(=O)(=O)N4CCOCC4)ccc3[nH]2)nc2c1c(=O)[nH]c(=O)n2Cc1ccc(Cl)cc1 [Compound 65]	32.7
CCOC(=O)c1ccc2c(c1)nc(SCc1nc3c(c(=O)[nH]c(=O)n3Cc3ccc(Cl)cc3)n1CC)n2CC [Compound 66]	16.8
CCCCNS(=O)(=O)c1ccc2nc(SCc3nc4c(c(=O)[nH]c(=O)n4Cc4ccc(Cl)cc4)n3CC)[nH]c2c1 [Compound 67]	8.9
CCn1c(COc2nc3cc(C(=O)O)ccc3[nH]2)nc2c1c(=O)[nH]c(=O)n2Cc1ccc(Cl)cc1 [Compound 68]	35.5
CCn1c(COc2ccc(-n3[nH]c(C(=O)O)cc3=O)nn2)nc2c1c(=O)[nH]c(=O)n2Cc1ccc(Cl)cc1 [Compound 69]	8.4
CCc1c(C(=O)O)cnn1-c1ccc(OCc2nc3c(c(=O)[nH]c(=O)n3Cc3ccc(Cl)cc3)n2CC)nn1 [Compound 70]	6.5
CCn1c(COc2nnc(-c3ccccc3)c(-c3ccccc3)n2)nc2c1c(=O)[nH]c(=O)n2Cc1ccc(Cl)cc1 [Compound 71]	17.8
CCn1c(COc2ncc(-c3ccc(C(=O)O)s3)cc2C)nc2c1c(=O)[nH]c(=O)n2Cc1ccc(Cl)cc1 [Compound 72]	4.4
CCn1c(COc2ccc(C3NC(C(=O)O)CS3)cc2)nc2c1c(=O)[nH]c(=O)n2Cc1ccc(Cl)cc1 (centres unmarked) [Compound 73]	7.5
CCn1c(CSc2nnc(Cc3cc(C)nn3C)n2CC2CCCO2)nc2c1c(=O)[nH]c(=O)n2Cc1ccc(Cl)cc1 (centres unmarked) [Compound 74]	5.5
CCn1c(COc2cccc(C(=O)NCc3ccccc3)c2)nc2c1c(=O)[nH]c(=O)n2Cc1ccc(Cl)cc1 [Compound 75]	3.9
CCn1c(COc2ccc(Nc3nc4ccccc4c(=O)[nH]3)cc2)nc2c1c(=O)[nH]c(=O)n2Cc1ccc(Cl)cc1 [Compound 76]	12.7
CCn1c(CSc2nc3nc(C)c(Br)cc3[nH]2)nc2c1c(=O)[nH]c(=O)n2Cc1ccc(Cl)cc1 [Compound 79]	4.2
CCn1c(CSc2nc3ncccn3n2)nc2c1c(=O)[nH]c(=O)n2Cc1ccc(Cl)cc1 [Compound 80]	10.6
